Measured values reported in patent US20230348564A1, “ANTI-CANCER PROTEINS” (UNICHEM LABORATORIES LTD, priority 2020, published 2023).

Legend:
MDA-MB-231 [1] = test: Cell cycle analysis (PI stain); type: cell-based, Human; conditions: 24 h
Description: (§1) The cell lines were maintained in DMEM+10% FBS (heat inactivated) at 37° C. with 5% CO2, and 95% humidity. Antibiotics Penicillin (100 U/mL) and Streptomycin (100 μg/mL) were added to the medium.
(§2) The stock solution of recombinant lectin having the amino acid sequence of SEQ ID NO. […] Doxorubicin was used as positive control and stock solution was prepared in DMSO.
(§3) Cells were counted using hemocytometer and plated in culture plates at density of 0.5×10^6 cells/well in DMEM+10% FBS in 6-well plates. Cells were incubated overnight to allow the cell recovery and exponential growth. Following overnight incubation, cells were sera starved in DMEM+1% FBS for 4 h. […] Untreated cells were included as Control group for test item. Cells treated with Doxorubicin were included as Positive Control group. DMSO treated cells were included as control group for Doxorubicin. After treatment, cells were incubated for a time period of 24 h. Following incubation, the pro-apoptotic effect by cell cycle was determined as follows: Cell cycle reagent contains PI stain, which stains DNA of cells in different phases of cell cycle; Sub(G0/G1), G1, S, G2 and M. Cells in Sub(G0/G1) phase correspond to apoptotic cells.
(§4) Cells were gently harvested into pre-labeled centrifuge tubes and centrifuged at 450 g for 5 min, RT (low brake). The supernatants were removed carefully (not to touch the pellet) and discarded. 1 mL of 1×PBS was added to the pellet and resuspended gently to make homogenous suspension. Cells were centrifuged at 450 g for 5 min, RT (low brake) (washing step). The supernatant was carefully removed leaving behind approx 100 μL of PBS. Cells were resuspended gently yet thoroughly in residual PBS. Ice-cold 70% ethanol (300 μLI) was added drop-wise into cells in each tube while vortexing at low speed (fixation step). Cells were stored at 4° C. for 24 h prior to staining.
(§5) Ethanol fixed cells were centrifuged at 450 g for 5 min, RT (low brake). The supernatant was carefully removed (not to touch the pellet) and discarded. (The pellet might not be visible but makes a thin film on surface of tube). 1 mL of 1×PBS was added into pellet and resuspended gently. Cells were incubated for 1 min at RT. Cells were centrifuged at 450 g for 5 min, RT (low brake) (washing step). The supernatant was removed carefully leaving behind approx 20 μL-50 μL of PBS. 200 μL of Cell Cycle reagent was added into each tube.
(§6) Cells were resuspended gently, mixed and were incubated for 30 min, RT, Dark. The stained samples were transferred into 96-well plates and acquired on flow cytometer (Guava technologies). Percentage of cells in Sub (G0/G1) phase were determined. Fold increase in apoptotic cells (treated with Test Items) was determined as compared to Control (untreated cells).

PANC-1 [2] = test: Cell cycle analysis (PI stain); type: cell-based, Human; conditions: 24 h
Description: as §1, §2, §3, §4, §5, §6

Neuroblastoma (SH-SY5Y) = test: cytotoxicity in Brain Tumor Cell lines by MTT assay; type: cell-based, Human; conditions: 0.1 Mm-100 μM, 72 h
Description: (§7) The SEQ ID NO. […] Untreated cells were used as control. […] Cells were incubated for 3 h at 37° C.

Glioblastoma (LN-18) = test: as above; type: cell-based, Human; conditions: 0.1 Mm-100 μM, 72 h
Description: as §7

Glioblastoma (U251MG) = test: as above; conditions: 0.1 Mm-100 μM, 72 h
MDA-MB-231 [3] = test: JC-1 assay, mitochondrial membrane depolarization; type: cell-based, Human; conditions: 16h
Description: (§8) To evaluate the in vitro apoptotic effect of recombinant lectin having the amino acid sequence of SEQ ID NO.2 in MDA-MB-231 (breast cancer) and PANG-1 (pancreatic cancer) cell line by JC-1 assay, an increase in mitochondrial membrane depolarization was used as a marker of apoptosis. […] 2 using JC-1 dye based method. […] The cell lines were grown in Dulbecco's Modified Eagle Medium (DMEM)+10% heat inactivated FBS at 37° C. (95% humidity and 5% CO2). […] Recombinant lectin having the amino acid sequence of SEQ ID NO. 2 was diluted in serum free medium. Doxorubicin was used as positive control and stock solution was prepared in dimethyl sulfoxide (DMSO). […] The cells were then incubated overnight under growth conditions to allow the cell recovery and exponential growth. Cells were treated with the recombinant lectin of SEQ ID NO. […] Following respective treatments the cells in the above plate were incubated for 16h in CO2 incubator at 37° C., 5% CO2 and 95% humidity.
(§9) After 16h of incubation, the supernatants were discarded and 100 μL of JC1-dye solution (prepared by diluting 1 mM DMSO stock in to 10 μM in 1×PBS) was added to each well. The cells were then incubated with the dye in CO2 incubator at 37° C. for 15 min. After 15 min of incubation, the supernatant was removed and the cells were washed twice with 1×PBS and then 100 μL of 1×PBS was added to each well. Red fluorescence (excitation 550 nm, emission 600 nm) and green fluorescence (excitation 485 nm, emission 535 nm) were measured using Biotek Synergy FIT plate reader. The mitochondrial membrane potential […] was calculated as the ratio of intensity of red fluorescence to intensity of green fluorescence described as follows:
(§10) ΔΨM=Intensity of red fluorescence/Intensity of green fluorescence
(§11) The percentage decrease of Red fluorescence/Green fluorescence corresponding to each treatment was calculated using the following formula:
(§12) Where X=Δψm corresponding to treated cells R=ΔΨM corresponding to control wells.

PANC-1 [4] = test: JC-1 assay, mitochondrial membrane depolarization; type: cell-based, Human; conditions: 16h
Description: as §8, §9, §10, §11, §12

## COc1cccc2c1C(=O)c1c(O)c3c(c(O)c1C2=O)C[C@@](O)(C(=O)CO)C[C@@H]3O[C@H]1C[C@H](N)[C@H](O)[C@H](C)O1 [Doxorubicin, reference compound]
MDA-MB-231 [1]; 10 μM
  % Population of cells, Apoptotic Sub(G0/G1): 11.09%
  % Population of cells, G0/G1: 40.26%
  % Population of cells, G2/M: 18.52%
  % Population of cells, S: 22.70%
MDA-MB-231 [1]; 100 μM
  % Population of cells, Apoptotic Sub(G0/G1): 92.02%
  % Population of cells, G0/G1: 5.64%
  % Population of cells, G2/M: 0.83%
  % Population of cells, S: 1.17%
PANC-1 [2]; 10 μM
  % Population of cells, Apoptotic Sub(G0/G1): 14.74%
  % Population of cells, G0/G1: 15.84%
  % Population of cells, G2/M: 27.44%
  % Population of cells, S: 18.45%
PANC-1 [2]; 100 μM
  % Population of cells, Apoptotic Sub(G0/G1): 89.13%
  % Population of cells, G0/G1: 9.65%
  % Population of cells, G2/M: 0.15%
  % Population of cells, S: 0.59%
Neuroblastoma (SH-SY5Y)
  % of cytotoxicity: 21.7%-61.7%
Glioblastoma (LN-18)
  % of cytotoxicity: 6.5%-47.7%
Glioblastoma (U251MG)
  % of cytotoxicity: 11.2%-78.6%
MDA-MB-231 [3]; 0.1 μM
  Average Green fluorescence: 473.0
  Average Red fluorescence: 465.3
  Percentage decrease in MMP (%): 58.8%
MDA-MB-231 [3]; 1 μM
  Average Green fluorescence: 345.5
  Average Red fluorescence: 343.3
  Percentage decrease in MMP (%): 58.3%
MDA-MB-231 [3]; 10 μM
  Average Green fluorescence: 534.0
  Average Red fluorescence: 580.7
  Percentage decrease in MMP (%): 54.4%
MDA-MB-231 [3]; 25 μM
  Average Green fluorescence: 336.3
  Average Red fluorescence: 376.7
  Percentage decrease in MMP (%): 53.0%
MDA-MB-231 [3]; 50 μM
  Average Green fluorescence: 318.0
  Average Red fluorescence: 663.7
  Percentage decrease in MMP (%): 12.5%
PANC-1 [4]; 0.1 μM
  Average Green fluorescence: 258.5
  Average Red fluorescence: 653.7
  Percentage decrease in MMP (%): −21.0%
PANC-1 [4]; 1 μM
  Average Green fluorescence: 282.3
  Average Red fluorescence: 555.3
  Percentage decrease in MMP (%): 5.9%
PANC-1 [4]; 10 μM
  Average Green fluorescence: 208.3
  Average Red fluorescence: 350.0
  Percentage decrease in MMP (%): 19.6%
PANC-1 [4]; 25 μM
  Average Green fluorescence: 186.3
  Average Red fluorescence: 283.0
  Percentage decrease in MMP (%): 27.3%
PANC-1 [4]; 50 μM
  Average Green fluorescence: 161.7
  Average Red fluorescence: 192.5
  Percentage decrease in MMP (%): 43.0%
